Data taken from PubChem BioAssay AID248 (DTP/NCI, 2004).
Several values for one entry are separate records, joined by “and”; a condition that tells them apart may be missing. Equal entries are not always repeated. Inconclusive results and toxic doses are left out. No stated cut-off is given here; in the data, active means T/C of 150% or more; inactive means T/C below 125%.

System: L1210 leukemia ip in BDF1 mice, survival T/C
Test: NCI In Vivo Anticancer Drug Screen. Data for tumor model L1210 Leukemia (intraperitoneal) in B6D2F1 (BDF1) mice
Conditions: endpoint: mean survival time, higher = longer survival
Outline: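 Tumor was transplanted into mice, which were then dosed with test compound or vehicle alone. Survival was recorded for each group, and the treated figure was expressed relative to the control figure.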

[1] = dose: 100.0 mg/kg/injection, schedule: Q01DX009 (ip), vehicle: Klucel (hydroxypropylcellulose) (HPC)
[2] = dose: 100.0 mg/kg/injection, schedule: Q04DX003 (ip), vehicle: Klucel (hydroxypropylcellulose) (HPC)
[3] = dose: 200.0 mg/kg/injection, schedule: Q01DX009 (ip), vehicle: Klucel (hydroxypropylcellulose) (HPC)
[4] = dose: 200.0 mg/kg/injection, schedule: Q04DX003 (ip), vehicle: Klucel (hydroxypropylcellulose) (HPC)
[5] = dose: 400.0 mg/kg/injection, schedule: Q01DX009 (ip), vehicle: Klucel (hydroxypropylcellulose) (HPC)
[6] = dose: 400.0 mg/kg/injection, schedule: Q04DX003 (ip), vehicle: Klucel (hydroxypropylcellulose) (HPC)
[7] = dose: 100.0 mg/kg/injection, schedule: Q01DX001 (ip), vehicle: saline
[8] = dose: 200.0 mg/kg/injection, schedule: Q01DX001 (ip), vehicle: saline
[9] = dose: 400.0 mg/kg/injection, schedule: Q01DX001 (ip), vehicle: saline
[10] = dose: 25.0 mg/kg/injection, schedule: Q04DX003 (ip), vehicle: Klucel (hydroxypropylcellulose) (HPC)
[11] = dose: 50.0 mg/kg/injection, schedule: Q04DX003 (ip), vehicle: Klucel (hydroxypropylcellulose) (HPC)
[12] = dose: 100.0 mg/kg/injection, schedule: Q04DX003 (ip), vehicle: saline with Tween-80
[13] = dose: 200.0 mg/kg/injection, schedule: Q04DX003 (ip), vehicle: saline with Tween-80
[14] = dose: 400.0 mg/kg/injection, schedule: Q04DX003 (ip), vehicle: saline with Tween-80
[15] = dose: 50.0 mg/kg/injection, schedule: Q01DX009 (ip), vehicle: Klucel (hydroxypropylcellulose) (HPC)
[16] = dose: 100.0 mg/kg/injection, schedule: Q04DX002 (ip), vehicle: Klucel (hydroxypropylcellulose) (HPC)
[17] = dose: 200.0 mg/kg/injection, schedule: Q04DX002 (ip), vehicle: Klucel (hydroxypropylcellulose) (HPC)
[18] = dose: 400.0 mg/kg/injection, schedule: Q04DX002 (ip), vehicle: Klucel (hydroxypropylcellulose) (HPC)
[19] = dose: 100.0 mg/kg/injection, schedule: Q01DX009 (ip), vehicle: saline with Tween-80

Measured: T/C

O=C(c1ccccc1)C1C(C(=O)c2ccccc2)N1Cc1ccccc1 (configuration not stated)
inactive: [1] 100 % of control | [2] 96 % of control and 93 % of control | [3] 101 % of control | [4] 96 % of control and 91 % of control | [5] 97 % of control | [6] 93 % of control and 100 % of control

CN(C)c1ccc(CNc2cccc([N+](=O)[O-])c2)cc1
inactive: dose: 100.0 mg/kg/injection, schedule: Q01DX001 (ip), vehicle: saline with Tween-80 96 % of control | dose: 200.0 mg/kg/injection, schedule: Q01DX001 (ip), vehicle: saline with Tween-80 90 % of control | dose: 400.0 mg/kg/injection, schedule: Q01DX001 (ip), vehicle: saline with Tween-80 95 % of control

CC(=O)Oc1ccc(CCNC(c2ccccc2)c2ccccc2)cc1OC(C)=O
inactive: [7] 100 % of control | [8] 107 % of control | [9] 86 % of control

CC[N+]1(CN2CCCCC2)CCCCC1
inactive: dose: 12.5 mg/kg/injection, schedule: Q04DX003 (ip), vehicle: Klucel (hydroxypropylcellulose) (HPC) 102 % of control | [10] 96 % of control | [11] 90 % of control

CCN(CC)Cc1ccccc1COC(=O)c1cccc(C)c1
inactive: dose: 50.0 mg/kg/injection, schedule: Q04DX002 (ip), vehicle: saline 93 % of control | dose: 100.0 mg/kg/injection, schedule: Q04DX002 (ip), vehicle: saline 90 % of control | dose: 200.0 mg/kg/injection, schedule: Q04DX002 (ip), vehicle: saline 93 % of control

CCOC(=O)C(Cc1ccccc1)C(=O)OCC
inactive: [12] 96 % of control | [13] 97 % of control | [14] 96 % of control

O=P(NO)(c1ccccc1)c1ccccc1
inactive: dose: 100.0 mg/kg/injection, schedule: Q01DX001 (ip), vehicle: carboxymethylcellulose (CMC) 92 % of control | dose: 200.0 mg/kg/injection, schedule: Q01DX001 (ip), vehicle: carboxymethylcellulose (CMC) 95 % of control | dose: 400.0 mg/kg/injection, schedule: Q01DX001 (ip), vehicle: carboxymethylcellulose (CMC) 95 % of control

CCOc1ccccc1NC(=O)COc1ccc(Cl)cc1
inactive: [1] 98 % of control | [2] 90 % of control | [3] 103 % of control | [4] 101 % of control | [5] 97 % of control | [6] 108 % of control

O=C(Nc1ccccc1F)Sc1c(Cl)c(Cl)nc(Cl)c1Cl
inactive: dose: 25.0 mg/kg/injection, schedule: Q01DX009 (ip), vehicle: Klucel (hydroxypropylcellulose) (HPC) 96 % of control and 101 % of control | [10] 105 % of control | [15] 94 % of control and 101 % of control | [11] 102 % of control | [16] 101 % of control and 107 % of control | [2] 113 % of control | [17] 96 % of control and 106 % of control | [18] 103 % of control and 115 % of control

CCCCCCc1nc2nc(Cl)c(Cl)nc2[nH]1
inactive: dose: 25.0 mg/kg/injection, schedule: Q01DX009 (ip), vehicle: saline with Tween-80 93 % of control | dose: 25.0 mg/kg/injection, schedule: Q04DX003 (ip), vehicle: saline with Tween-80 105 % of control | dose: 50.0 mg/kg/injection, schedule: Q01DX009 (ip), vehicle: saline with Tween-80 96 % of control | dose: 50.0 mg/kg/injection, schedule: Q04DX003 (ip), vehicle: saline with Tween-80 98 % of control | [19] 106 % of control | [12] 95 % of control and 103 % of control | dose: 150.0 mg/kg/injection, schedule: Q01DX009 (ip), vehicle: saline with Tween-80 98 % of control

O=C(/C=C\c1ccc([N+](=O)[O-])cc1)NCCCCNC(=O)/C=C/c1ccc([N+](=O)[O-])cc1
inactive: [7] 96 % of control

Cc1ccc(N2C(N)=NC(N)=NC2(C)C)cc1
inactive: dose: 12.5 mg/kg/injection, schedule: Q01DX001 (ip), vehicle: saline 100 % of control | dose: 25.0 mg/kg/injection, schedule: Q01DX001 (ip), vehicle: saline 100 % of control

COC(=O)C1(c2ccccc2)C(c2ccccc2)=C(c2ccccc2)C(c2ccccc2)CC1c1ccccc1 (configuration not stated)
inactive: [16] 103 % of control | [17] 96 % of control | [18] 92 % of control

C=C=CC(C)(C)C
inactive: [7] 96 % of control | [8] 96 % of control | dose: 200.0 mg/kg/injection, schedule: Q04DX003 (ip), vehicle: saline 100 % of control | [9] 96 % of control | dose: 400.0 mg/kg/injection, schedule: Q04DX003 (ip), vehicle: saline 100 % of control

CCCCCC/C=N\N=C(N)N
inactive: dose: 15.0 mg/kg/injection, schedule: Q01DX Z (ip), vehicle: saline 97 % of control | dose: 30.0 mg/kg/injection, schedule: Q01DX Z (ip), vehicle: saline 97 % of control | dose: 60.0 mg/kg/injection, schedule: Q01DX Z (ip), vehicle: saline 102 % of control | dose: 60.0 mg/kg/injection, schedule: Q01DX Z (oral), vehicle: saline 100 % of control | dose: 120.0 mg/kg/injection, schedule: Q01DX Z (ip), vehicle: saline 88 % of control | dose: 120.0 mg/kg/injection, schedule: Q01DX Z (oral), vehicle: saline 98 % of control | dose: 240.0 mg/kg/injection, schedule: Q01DX Z (oral), vehicle: saline 91 % of control | dose: 480.0 mg/kg/injection, schedule: Q01DX Z (oral), vehicle: saline 98 % of control

O=S(=O)(NC1CCc2ccccc21)c1ccccc1 (configuration not stated)
inactive: [19] 95 % of control | dose: 200.0 mg/kg/injection, schedule: Q01DX009 (ip), vehicle: saline with Tween-80 90 % of control

[O-][n+]1onc(-c2ccccc2)c1-c1ccccc1
inactive: [2] 105 % of control | [4] 108 % of control | [6] 108 % of control

COc1ccc(CNCCNCc2ccc(OC)cc2)cc1
inactive: [15] 96 % of control | [1] 100 % of control | dose: 100.0 mg/kg/injection, schedule: Q01DX009 (ip), vehicle: water 98 % of control | [2] 103 % of control | dose: 100.0 mg/kg/injection, schedule: Q04DX003 (ip), vehicle: water 96 % of control | [3] 96 % of control | dose: 200.0 mg/kg/injection, schedule: Q01DX009 (ip), vehicle: water 92 % of control | [4] 94 % of control | dose: 200.0 mg/kg/injection, schedule: Q04DX003 (ip), vehicle: water 100 % of control | dose: 400.0 mg/kg/injection, schedule: Q01DX009 (ip), vehicle: water 89 % of control | dose: 400.0 mg/kg/injection, schedule: Q04DX003 (ip), vehicle: water 100 % of control

COC1OCC(N=[N+]=[N-])C(OC)C1O (configuration not stated)
inactive: [12] 100 % of control | [13] 100 % of control | [14] 98 % of control

CCC1c2ccc3cc(OC)ccc3c2C(=O)C1CC(=O)O (configuration not stated)
inactive: [7] 93 % of control | [8] 107 % of control

CCc1ccc(NC(=O)Nc2ccc(OC)cc2)cc1
inactive: dose: 100.0 mg/kg/injection, schedule: Q01DX009 (ip), vehicle: gum acacia 97 % of control | dose: 100.0 mg/kg/injection, schedule: Q04DX003 (ip), vehicle: gum acacia 95 % of control | dose: 200.0 mg/kg/injection, schedule: Q01DX009 (ip), vehicle: gum acacia 92 % of control | dose: 200.0 mg/kg/injection, schedule: Q04DX003 (ip), vehicle: gum acacia 92 % of control | dose: 400.0 mg/kg/injection, schedule: Q01DX009 (ip), vehicle: gum acacia 91 % of control | dose: 400.0 mg/kg/injection, schedule: Q04DX003 (ip), vehicle: gum acacia 94 % of control

S=P(N1CCOCC1)(N1CCOCC1)N1CCOCC1
inactive: [16] 103 % of control | [17] 89 % of control | [18] 113 % of control

CCN(CCO)c1ccc(N=O)cc1
inactive: dose: 5.0 mg/kg/injection, schedule: Q01DX001 (ip), vehicle: saline 95 % of control | dose: 10.0 mg/kg/injection, schedule: Q01DX001 (ip), vehicle: saline 101 % of control | dose: 50.0 mg/kg/injection, schedule: Q01DX001 (ip), vehicle: saline 90 % of control
